For 36 molecules, IC50 results are on record in patent US20260049085A1, “CYCLIC COMPOUNDS AND METHODS OF USING SAME” (SCHRÖDINGER, INC., priority 2022, published 2026).

SMILES strings stand for the structures.

Broadly, the IC50 is the concentration at which inhibition is half-maximal. Higher therefore signals lower potency.

This assay concerns the target T1, full-length MALT1 protein His-MALT1(1-824) (Homo sapiens, UniProt Q9UDY8).
T1 construct: full-length MALT1 protein His-MALT1(1-824); His (N); made in house; host or cells: baculovirus-infected insect cells
T1 sequence (Q9UDY8 1-824): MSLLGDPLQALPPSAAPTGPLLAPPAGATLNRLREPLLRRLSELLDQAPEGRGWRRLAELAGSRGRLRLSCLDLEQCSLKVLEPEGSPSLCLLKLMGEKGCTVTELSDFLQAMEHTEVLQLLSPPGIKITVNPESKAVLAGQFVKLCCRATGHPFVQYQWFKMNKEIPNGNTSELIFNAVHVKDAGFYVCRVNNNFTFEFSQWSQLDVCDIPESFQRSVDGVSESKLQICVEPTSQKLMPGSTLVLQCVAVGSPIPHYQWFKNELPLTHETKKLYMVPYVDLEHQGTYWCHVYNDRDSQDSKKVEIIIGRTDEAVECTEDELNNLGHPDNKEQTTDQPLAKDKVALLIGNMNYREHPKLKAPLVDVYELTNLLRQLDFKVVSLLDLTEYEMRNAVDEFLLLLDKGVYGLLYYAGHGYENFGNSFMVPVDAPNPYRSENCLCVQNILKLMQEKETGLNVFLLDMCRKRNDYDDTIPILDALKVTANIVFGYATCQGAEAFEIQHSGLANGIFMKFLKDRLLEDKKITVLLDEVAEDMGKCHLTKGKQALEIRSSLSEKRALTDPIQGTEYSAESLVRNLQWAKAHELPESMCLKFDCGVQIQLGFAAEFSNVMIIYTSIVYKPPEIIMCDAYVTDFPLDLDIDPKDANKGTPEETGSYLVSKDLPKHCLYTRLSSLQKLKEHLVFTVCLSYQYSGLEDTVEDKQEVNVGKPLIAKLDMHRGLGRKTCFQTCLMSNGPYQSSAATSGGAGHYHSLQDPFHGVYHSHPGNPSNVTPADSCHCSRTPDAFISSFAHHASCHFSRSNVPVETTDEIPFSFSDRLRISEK
As to the kind of experiment: MALT1 protease assay (Ac-LRSR-AMC tetrapeptide substrate, fluorescence). Type of assay: biochemical. As to conditions: 1 nM MALT1, 25 μM Ac-LRSR-AMC, 2 h pre-incubation, 8 hr incubation at RT. How it is done: MALT1 protease activity was assessed in an in vitro assay using a tetrapeptide as substrate and full-length MALT1 protein His-MALT1(1-824) purified from baculovirus-infected insect cells.
The final assay buffer includes 1 nM of MALT1 full-length protein, 25 μM Ac-LRSR-AMC substrate, 50 mM Tris pH 7.5, 600 mM Sodium Citrate, 1 mM DTT, 1 mM EDTA, and 0.05% BSA in 384-well plate format using black microtiter square well plates (Optiplate 384-F, Perkin Elmer).
Test compounds were dissolved in 100% DMSO stock of 10 mM, with final DMSO concentration of 0.1%. Test compounds were pre-incubated with MALT1 protein for 2 h at room temperature. Substrate was added after the pre-incubation and fluorescence signal was measured using Envision at excitation 355 nm and emission 460 nm after 8 hr incubation at RT.
The fluorescence units were transformed to percentage of remaining activity by using the high control (HC, median of fluorescence signal from wells containing MALT1 protein, substrate, and DMSO) and low control (LC, median of fluorescence signal from wells with substrate only) with the formula below: […]
IC50 and Hill coefficients were obtained using Graph Pad Prism (Graph Pad software, Inc, USA) with non-linear regression analysis.
Turning to `C[C@]1(c2cncs2)C[C@H](C(=O)Nc2cnc(-n3nccn3)c(Cl)c2)c2cnc3cc(F)nn3c21` (single isomer, unassigned) [Example 36], the IC50 was less than 10 nM.
The value for `C[C@@]1(c2cncs2)C[C@@H](C(=O)Nc2cnc(-n3nccn3)c(Cl)c2)c2cnc3cc(F)nn3c21` (single isomer, unassigned) [Example 37] was not below 1000 nM.
For `C[C@@]1(c2cncs2)C[C@H](C(=O)Nc2cnc(-n3nccn3)c(Cl)c2)c2cnc3cc(F)nn3c21` (single isomer, unassigned) [Example 38], the IC50 was in the range of 10 to 100 nM.
Next, `C[C@]1(c2cncs2)C[C@@H](C(=O)Nc2cnc(-n3nccn3)c(Cl)c2)c2cnc3cc(F)nn3c21` (single isomer, unassigned) [Example 39]: 10 to 100 nM.
The value for `Cn1cc([C@]2(C)C[C@@H](C(=O)Nc3cnc(OC(F)F)c(C#N)c3)c3cnc4cc(F)nn4c32)cn1` (single isomer, unassigned) [Example 41] was not below 1000 nM; that for `Cn1cc([C@]2(C)C[C@H](C(=O)Nc3cnc(OC(F)F)c(C#N)c3)c3cnc4cc(F)nn4c32)cn1` (single isomer, unassigned) [Example 42] was 100 to 1000 nM.
Next, `Cn1cc([C@@]2(C)C[C@@H](C(=O)Nc3cnc(OC(F)F)c(C#N)c3)c3cnc4cc(F)nn4c32)cn1` (single isomer, unassigned) [Example 43]: 100 to 1000 nM; `Cn1cc([C@@]2(C)C[C@H](C(=O)Nc3ccnc(C(F)(F)F)c3)c3cnc4cc(Cl)nn4c32)cn1` (single isomer, unassigned) [Example 44]: 10 to 100 nM.
The molecule `Cn1cc([C@]2(C)C[C@@H](C(=O)Nc3ccnc(C(F)(F)F)c3)c3cnc4cc(Cl)nn4c32)cn1` (single isomer, unassigned) [Example 45] showed an IC50 not below 1000 nM.
Next, `Cn1cc([C@]2(C)C[C@H](C(=O)Nc3ccnc(C(F)(F)F)c3)c3cnc4cc(Cl)nn4c32)cn1` (single isomer, unassigned) [Example 46]: 100 to 1000 nM; `Cn1cc([C@@]2(C)C[C@@H](C(=O)Nc3ccnc(C(F)(F)F)c3)c3cnc4cc(Cl)nn4c32)cn1` (single isomer, unassigned) [Example 47]: not below 1000 nM; `CC(C)n1cc([C@@]2(C)C[C@H](C(=O)Nc3cnc(-n4nccn4)c(Cl)c3)c3cnc4cc(F)nn4c32)cn1` (single isomer, unassigned) [Example 48]: less than 10 nM.
Next, `CC(C)n1cc([C@]2(C)C[C@@H](C(=O)Nc3cnc(-n4nccn4)c(Cl)c3)c3cnc4cc(F)nn4c32)cn1` (single isomer, unassigned) [Example 49]: not below 1000 nM.
Regarding `CC(C)n1cc([C@]2(C)C[C@H](C(=O)Nc3cnc(-n4nccn4)c(Cl)c3)c3cnc4cc(F)nn4c32)cn1` (single isomer, unassigned) [Example 50], the IC50 lay in the range of 10 to 100 nM.
Take `CC(C)n1cc([C@@]2(C)C[C@@H](C(=O)Nc3cnc(-n4nccn4)c(Cl)c3)c3cnc4cc(F)nn4c32)cn1` (single isomer, unassigned) [Example 51]: the half-maximal inhibitory concentration (IC50) lay within 100 to 1000 nM.
Regarding `Cn1cc([C@@]2(C)C[C@H](C(=O)Nc3cnc(OC(F)(F)F)c(C#N)c3)c3cnc4cc(F)nn4c32)cn1` (single isomer, unassigned) [Example 52], the IC50 is 10 to 100 nM.
`Cn1cc([C@]2(C)C[C@@H](C(=O)Nc3cnc(OC(F)(F)F)c(C#N)c3)c3cnc4cc(F)nn4c32)cn1` (single isomer, unassigned) [Example 53]: the IC50 was not below 1000 nM.
The value for `Cn1cc([C@]2(C)C[C@H](C(=O)Nc3cnc(OC(F)(F)F)c(C#N)c3)c3cnc4cc(F)nn4c32)cn1` (single isomer, unassigned) [Example 54] was 100 to 1000 nM.
The value for `Cn1cc([C@@]2(C)C[C@@H](C(=O)Nc3cnc(OC(F)(F)F)c(C#N)c3)c3cnc4cc(F)nn4c32)cn1` (single isomer, unassigned) [Example 55] was 100 to 1000 nM; that for `Cc1cc(NC(=O)[C@H]2C[C@](C)(c3cnn(C)c3)c3c2cnc2cc(F)nn32)cnc1-n1nccn1` (single isomer, unassigned) [Example 56, trans-2-fluoro-8-methyl-8-(1-methyl-1H-pyrazol-4-yl)-N-(5-methyl-6-(2H-1,2,3-triazol-2-yl)pyridin-3-yl)-7,8-dihydro-6H-cyclopenta[e]pyrazolo[1,5-a]pyrimidine-6-carboxamide] was 10 to 100 nM.
The molecule `Cc1cc(NC(=O)[C@@H]2C[C@@](C)(c3cnn(C)c3)c3c2cnc2cc(F)nn32)cnc1-n1nccn1` (single isomer, unassigned) [Example 57, trans-2-fluoro-8-methyl-8-(1-methyl-1H-pyrazol-4-yl)-N-(5-methyl-6-(2H-1,2,3-triazol-2-yl)pyridin-3-yl)-7,8-dihydro-6H-cyclopenta[e]pyrazolo[1,5-a]pyrimidine-6-carboxamide] registered an IC50 not below 1000 nM.
Next, `Cc1cc(NC(=O)[C@H]2C[C@@](C)(c3cnn(C)c3)c3c2cnc2cc(F)nn32)cnc1-n1nccn1` (single isomer, unassigned) [Example 58]: not below 1000 nM; `Cc1cc(NC(=O)[C@@H]2C[C@](C)(c3cnn(C)c3)c3c2cnc2cc(F)nn32)cnc1-n1nccn1` (single isomer, unassigned) [Example 59]: not below 1000 nM; `Cc1cc(NC(=O)[C@H]2C[C@](C)(c3cnn(C)c3)c3c2cnc2cc(F)nn32)cnc1OC(F)F` (single isomer, unassigned) [Example 60]: 10 to 100 nM.
The molecule `Cc1cc(NC(=O)[C@@H]2C[C@@](C)(c3cnn(C)c3)c3c2cnc2cc(F)nn32)cnc1OC(F)F` (single isomer, unassigned) [Example 61] yielded an IC50 not below 1000 nM.
The value for `Cc1cc(NC(=O)[C@H]2C[C@@](C)(c3cnn(C)c3)c3c2cnc2cc(F)nn32)cnc1OC(F)F` (single isomer, unassigned) [Example 62] was not below 1000 nM; that for `Cc1cc(NC(=O)[C@@H]2C[C@](C)(c3cnn(C)c3)c3c2cnc2cc(F)nn32)cnc1OC(F)F` (single isomer, unassigned) [Example 63] was not below 1000 nM.
`Cn1nccc1[C@@]1(C)C[C@H](C(=O)Nc2cnc(-n3nccn3)c(Cl)c2)c2cnc3cc(F)nn3c21` (single isomer, unassigned) [Example 64] gave an IC50 of 10 to 100 nM.
Next, `Cn1nccc1[C@]1(C)C[C@@H](C(=O)Nc2cnc(-n3nccn3)c(Cl)c2)c2cnc3cc(F)nn3c21` (single isomer, unassigned) [Example 65]: not below 1000 nM; `Cn1nccc1[C@]1(C)C[C@H](C(=O)Nc2cnc(-n3nccn3)c(Cl)c2)c2cnc3cc(F)nn3c21` (single isomer, unassigned) [Example 66]: 100 to 1000 nM.
Next, `Cn1nccc1[C@@]1(C)C[C@@H](C(=O)Nc2cnc(-n3nccn3)c(Cl)c2)c2cnc3cc(F)nn3c21` (single isomer, unassigned) [Example 67]: not below 1000 nM; `Cn1ccc([C@]2(C)C[C@@H](C(=O)Nc3cnc(OC(F)F)c(C#N)c3)c3cnc4cc(F)nn4c32)n1` (single isomer, unassigned) [Example 69]: not below 1000 nM.
Molecule `Cn1ccc([C@]2(C)C[C@H](C(=O)Nc3cnc(OC(F)F)c(C#N)c3)c3cnc4cc(F)nn4c32)n1` (single isomer, unassigned) [Example 70] yielded an IC50 of 100 to 1000 nM.
Take `Cn1ccc([C@@]2(C)C[C@@H](C(=O)Nc3cnc(OC(F)F)c(C#N)c3)c3cnc4cc(F)nn4c32)n1` (single isomer, unassigned) [Example 71]: the 50% inhibitory concentration (IC50) is not below 1000 nM.
`C[C@]1(c2cnn(C3CC3)c2)C[C@H](C(=O)Nc2cnc(OC(F)F)c(C#N)c2)c2cnc3cc(F)nn3c21` (single isomer, unassigned) [Example 72] returned an IC50 of less than 10 nM.
Molecule `C[C@@]1(c2cnn(C3CC3)c2)C[C@@H](C(=O)Nc2cnc(OC(F)F)c(C#N)c2)c2cnc3cc(F)nn3c21` (single isomer, unassigned) [Example 73] returned an IC50 not below 1000 nM.
